Here are results for 39 molecules from patent US12414952B2 (Merck Sharp & Dohme LLC, priority 2018, dated 2025).

Test [1] concerns the target human A2a adenosine receptor (Homo sapiens (Human), UniProt P29274). The test is described as follows: A2a binding affinity using radioligand binding, Method (A). Conditions: Method (A): [3H]SCH58261 filtration binding. An excerpt:
The A2a receptor affinity binding assay measured the amount of binding of a tritiated ligand with high affinity for the A2a adenosine receptor to membranes made from HEK293 or CHO cells recombinantly expressing the human A2a adenosine receptor, in the presence of varying concentrations of a compound of the invention. The data were generated using either filtration binding or a homogenous scintillation proximity assay (SPA).
Method (A): Measurement of A2a Binding Affinity Using Radioligand Binding
148 μL (5 μg/mL) membranes (Perkin Elmer, Cat. No. RBHA2aM400UA) and 2 μL compounds of the invention to be tested (test compound) were transferred to individual wells of a 96-well polypropylene assay plate and incubated for 15 to 30 min at room temperature. [^3H] SCH58261 ((7-(2-phenylethyl)-5-amino-2-(2-furyl)-pyrazolo-[4,3-e]-1,2,4-triazolo[1,5-c]pyrimidine)) was diluted in assay buffer (50 mM Tris pH 7.4, 10 mM MgCl2, 0.005% Tween20) to a concentration of 4 nM and 50 μL transferred to each well of the assay plate. […] The assay plate was incubated at room temperature for 60 min with agitation. […] Filtering was achieved by aspirating the contents of the assay plate for 5 sec, then washing and aspirating the contents three times with ice-cooled wash buffer (50 mM Tris-HCl pH 7.4, 150 mM NaCl) and allowing the vacuum manifold to dry the plate for […]. The filter plate was incubated for at least 1 h at 55° C. and allowed to dry. The bottom of the filter plate was sealed with backing tape. […] The plate was incubated for at least 20 min, and then the amount of radioactivity remaining in each well was determined using a TopCount® (Perkin Elmer) scintillation counter. After normalization to total and non-specific binding, the percent effect at each compound concentration was calculated. The plot of percent effect versus the log of compound concentration was analyzed electronically using a 4-parameter logistic fit based on the Levenberg-Marquardt algorithm to generate IC50 values.

For test [2], the target named is human A2b adenosine receptor (Homo sapiens (Human), UniProt P29275). As to the kind of experiment: A2b binding affinity, radioligand filtration binding assay. Conditions: tritiated proprietary A2b antagonist, HEK293 membranes. Here is the method:
Measurement of A2b Binding Affinity
The reported affinity of the compounds of the invention for the human A2b adenosine receptor was determined experimentally using a radioligand filtration binding assay. This assay measures the amount of binding of a tritiated proprietary A2b receptor antagonist, in the presence and absence of a compound of the invention, to membranes made from HEK293 cells recombinantly expressing the human A2b adenosine receptor (Perkin Elmer, Cat. No. ES-013-C).
The filter plate was incubated for at least 1 h at 55° C. and allowed to dry. The bottom of the filter plate was then sealed with backing tape. […] The plates were then incubated for at least 20 min, and then the amount of radioactivity remaining in each well was determined using a TopCount® (Perkin Elmer) scintillation counter. After normalization to total and non-specific binding, the percent effect at each compound concentration was calculated. The plot of percent effect versus the log of compound concentration was analyzed electronically using a 4-parameter logistic fit based on the Levenberg-Marquardt algorithm to generate IC50 values.

Sequence of human A2b adenosine receptor (P29275 whole entry): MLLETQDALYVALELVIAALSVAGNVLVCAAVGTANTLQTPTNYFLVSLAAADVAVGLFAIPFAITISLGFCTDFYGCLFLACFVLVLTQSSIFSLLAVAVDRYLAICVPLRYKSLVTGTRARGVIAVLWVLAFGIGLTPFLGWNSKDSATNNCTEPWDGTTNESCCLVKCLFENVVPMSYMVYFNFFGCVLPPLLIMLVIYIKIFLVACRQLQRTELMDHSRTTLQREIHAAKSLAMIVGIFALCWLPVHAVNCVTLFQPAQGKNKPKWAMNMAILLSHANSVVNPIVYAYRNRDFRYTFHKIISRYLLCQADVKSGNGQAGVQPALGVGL
Sequence of human A2a adenosine receptor (P29274 whole entry): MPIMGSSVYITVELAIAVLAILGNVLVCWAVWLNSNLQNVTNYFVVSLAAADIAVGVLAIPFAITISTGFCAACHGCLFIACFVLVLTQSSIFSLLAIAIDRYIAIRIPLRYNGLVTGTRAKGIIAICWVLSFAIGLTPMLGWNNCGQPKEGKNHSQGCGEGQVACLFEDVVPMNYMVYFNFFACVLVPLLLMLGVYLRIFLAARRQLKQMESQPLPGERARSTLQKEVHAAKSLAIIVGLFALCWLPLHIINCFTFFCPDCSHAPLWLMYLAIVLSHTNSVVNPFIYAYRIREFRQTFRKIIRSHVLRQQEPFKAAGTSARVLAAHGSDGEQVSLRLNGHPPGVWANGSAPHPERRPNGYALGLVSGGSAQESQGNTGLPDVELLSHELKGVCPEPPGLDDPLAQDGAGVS

For `Cc1c(-c2ncco2)nc(N)n2nc(CCN3Cc4nnn(C(C)C)c4C(C)C3)nc12` (single isomer, unassigned) [Example 17.8-1, (R or S)-2-(2-(1-isopropyl-7-methyl-1,4,6,7-tetrahydro-5H-[1,2,3]triazolo[4,5-c]pyridin-5-yl)ethyl)-8-methyl-7-(oxazol-2-yl)-[1,2,4]triazolo[1,5-c]pyrimidin-5-amine], the IC50 in test [1] was 0.0007 µM; in test [2], 1.68 µM.
As for `Cc1c(-c2ncco2)nc(N)n2nc(CCN3Cc4nnn(C(C)C)c4C(C)C3)nc12` (single isomer, unassigned) [Example 17.8-2, (R or S)-2-(2-(1-isopropyl-7-methyl-1,4,6,7-tetrahydro-5H-[1,2,3]triazolo[4,5-c]pyridin-5-yl)ethyl)-8-methyl-7-(oxazol-2-yl)-[1,2,4]triazolo[1,5-c]pyrimidin-5-amine], the IC50 worked out at 0.0023 µM in test [1] and 0.014 µM in test [2].
In the same order, the values of `Cc1c(-c2ncco2)nc(N)n2nc(CCN3CCn4c(cnc4C(C)C)C3)nc12` [Example 1.10] are 0.0021 µM and 0.0162 µM.
For `Cc1c(-c2ncco2)nc(N)n2nc(CCN3CCn4c(cnc4C4CCC4)C3)nc12` [Example 1.11], the IC50 in test [1] turned out to be 0.0036 µM; in test [2], 0.0563 µM.
On to `Cc1c(-c2ncco2)nc(N)n2nc(CCN3CCn4c(cnc4C4CC4)C3)nc12` [Example 1.12], for which the values for the IC50 in test [1] and in test [2] were 0.0048 µM and 0.218 µM, respectively.
The corresponding values for `Cc1c(-c2ncco2)nc(N)n2nc(CCN3CCc4c(cnn4C4CCC4)C3)nc12` [Example 1.13] are 0.001 µM and 0.144 µM.
The corresponding values for `Cc1c(-c2ncco2)nc(N)n2nc(CCN3CCc4nn(C5CCC5)cc4C3)nc12` [Example 1.14] are 0.0067 µM and 0.399 µM.
The corresponding values for `Cc1c(-c2ncco2)nc(N)n2nc(CCN3CCc4c(nnn4C(C)C)C3)nc12` [Example 1.15] are 0.0001 µM and 0.402 µM.
Regarding `Cc1c(-c2ncco2)nc(N)n2nc(CCN3CCc4c(nnn4C4CC4)C3)nc12` [Example 1.16], the IC50 in test [1] was 0.0003 µM; in test [2], 0.111 µM.
In the same order, the values of `Cc1c(-c2ncco2)nc(N)n2nc(CCN3CCc4c(nnn4CC(F)(F)F)C3)nc12` [Example 1.17] are 0.0013 µM and 0.0352 µM.
In the same order, the values of `Cc1c(-c2ncco2)nc(N)n2nc(CCN3CCc4c(nnn4CC(C)(C)O)C3)nc12` [Example 1.18] are 0.0181 µM and 0.695 µM.
The corresponding values for `CC(C)c1ncc2n1CCN(CCc1nc3cc(-c4ncco4)nc(N)n3n1)C2` [Example 1.19] are 0.127 µM and 0.905 µM.
On to `Cc1c(-c2cccc(F)c2)nc(N)c2nc(CCN3CCn4c(cnc4C(C)C)C3)nn12` [Example 2.8], for which the values for the IC50 in test [1] and in test [2] were 0.16 µM and 0.0481 µM, respectively.
The corresponding values for `COc1c(F)cc(F)cc1-c1cc2nc(CCN3CCn4c(cnc4C(C)C)C3)nn2c(N)n1` [Example 2.9] are 0.636 µM and 0.248 µM.
With `CC(C)c1ncc2n1CCN(CCc1nc3cc(-c4cc(F)ccc4O)nc(N)n3n1)C2` [Example 2.10], the IC50 worked out at 1 µM in test [1] and 0.4 µM in test [2].
On to `CC(C)c1ncc2n1CCN(CCc1nc3cc(-c4cc(F)ccc4F)nc(N)n3n1)C2` [Example 2.11], for which the IC50 was 0.246 µM in test [1] and 0.178 µM in test [2].
In the same order, the values of `CC(C)c1ncc2n1CCN(CCc1nc3cc(-c4cc(F)ccc4Cl)nc(N)n3n1)C2` [Example 2.12] are 0.44 µM and 0.215 µM.
In the same order, the values of `CC(C)c1ncc2n1CCN(CCc1nc3cc(-c4cccc(F)c4)nc(N)n3n1)C2` [Example 2.13] are 0.0354 µM and 0.0955 µM.
Take `CC(C)c1ncc2n1CCN(CCc1nc3cc(-c4cc(F)cc(F)c4)nc(N)n3n1)C2` [Example 2.14]: the IC50 in test [1] was found to be 0.362 µM; in test [2] it was 0.223 µM.
In the same order, the values of `Cc1c(-c2cccc(F)c2)nc(N)n2nc(CCN3CCn4c(cnc4C(C)C)C3)nc12` [Example 2.15] are 0.0164 µM and 0.0368 µM.
Turning to `Cc1c(-c2cccc(F)c2)nc(N)n2nc(CCN3CCc4c(nnn4C(C)C)C3)nc12` [Example 2.16], the IC50 in test [1] is 0.0023 µM; in test [2], 0.0734 µM.
`CC(C)n1nnc2c1CCN(CCc1nc3cc(-c4cccc(C#N)c4F)nc(N)n3n1)C2` [Example 2.24]: the IC50 in test [1] was found to be 0.0009 µM; in test [2] it was 0.0736 µM.
The corresponding values for `Cc1c(-c2cncc(C(F)(F)F)c2)nc(N)c2nc(Cc3ccccc3)nn12` [Example 3.22] are 0.836 µM and 8.7 µM.
On to `Cc1c(-c2cccc(Cl)c2)nc(N)c2nc(Cc3ccccc3)nn12` [Example 3.23], for which the IC50 turned out to be 0.0027 µM in test [1] and 0.0136 µM in test [2].
The corresponding values for `Cc1c(-c2cc(Cl)ccc2F)nc(N)c2nc(Cc3ccccc3)nn12` [Example 3.24] are 0.0007 µM and 0.0024 µM.
In the same order, the values of `Cc1c(-c2cc(F)cc(F)c2)nc(N)c2nc(Cc3ccccc3)nn12` [Example 3.25] are 0.0016 µM and 0.0198 µM.
The corresponding values for `Cc1c(-c2cc(F)cc(F)c2F)nc(N)c2nc(Cc3ccccc3)nn12` [Example 3.26] are 0.0025 µM and 0.0027 µM.
In the case of `COc1ncc(-c2nc(N)c3nc(Cc4ccccc4)nn3c2C)cc1Cl` [Example 3.27], the results for the IC50 in test [1] and in test [2] were 0.011 µM and 0.145 µM, respectively.
For the molecule `Cc1c(-c2cc(F)cc(Cl)c2)nc(N)c2nc(Cc3ccccc3)nn12` [Example 3.28], the figures for the IC50 in test [1] and in test [2] were 0.0029 µM and 0.0344 µM, respectively.
The corresponding values for `Cc1c(-c2cccc(F)c2F)nc(N)c2nc(Cc3ccccc3)nn12` [Example 3.29] are 0.004 µM and 0.0394 µM.
In the same order, the values of `Cc1c(-c2cccc(Cl)c2F)nc(N)c2nc(Cc3ccccc3)nn12` [Example 3.30] are 0.0076 µM and 0.0462 µM.
In the same order, the values of `COc1cc(F)cc(-c2nc(N)c3nc(Cc4ccccc4)nn3c2C)c1` [Example 3.31] are 0.0062 µM and 0.134 µM.
Take `Nc1nc(-c2ccccc2)cc2nc(CCN3CCn4c(cnc4C4CCC4)C3)nn12` [Example 17.27, 2-(2-(3-cyclobutyl-5,6-dihydroimidazo[1,5-a]pyrazin-7(8H)-yl)ethyl)-7-phenyl-[1,2,4]triazolo[1,5-c]pyrimidin-5-amine]: in test [1], the half-maximal inhibitory concentration (IC50) was 0.0399 µM.
In test [1], `Cc1c(-c2ncco2)nc(N)n2nc(Cc3ccccc3)nc12` [Example 19.3, 2-benzyl-8-methyl-7-(oxazol-2-yl)-[1,2,4]triazolo[1,5-c]pyrimidin-5-amine] showed an IC50 of 0.0005 µM.
Same read-out and setting: the same measure for `Cc1c(-c2ncco2)nc(N)c2nc(Cc3ccccc3)nn12` [Example 20.2, 2-benzyl-5-methyl-6-(oxazol-2-yl)-[1,2,4]triazolo[1,5-a]pyrazin-8-amine]: 0.0005 µM; for `Cc1c(-c2ccc(F)cc2)nc(N)c2nc(Cc3ccccc3)nn12` [Example 20.3, 2-benzyl-6-(4-fluorophenyl)-5-methyl-[1,2,4]triazolo[1,5-a]pyrazin-8-amine]: 0.04 µM.
Same read-out and setting: under `Nc1nc(-c2ncco2)c(C2CC2)n2nc(Cc3ccccc3)nc12` [Example 20.4, 2-benzyl-5-cyclopropyl-6-(oxazol-2-yl)-[1,2,4]triazolo[1,5-a]pyrazin-8-amine] stands 0.0032 µM; under `Cc1c(-c2ncco2)nc(N)n2nc(Cn3cc(CCC(C)(C)O)cn3)nc12` [Example 21.3, 4-(1-((5-amino-8-methyl-7-(oxazol-2-yl)-[1,2,4]triazolo[1,5-c]pyrimidin-2-yl)methyl)-1H-pyrazol-4-yl)-2-methylbutan-2-ol], 0.0215 µM.
Still for that read-out and setting: the same measure for `Cc1c(-c2ncco2)nc(N)n2nc(CCc3ccc4c(c3)nnn4C3CC(F)(F)C3)nc12` [Example 22.3, 2-(2-(1-(3,3-Difluorocyclobutyl)-1H-benzo[d][1,2,3]triazol-5-yl)ethyl)-8-methyl-7-(oxazol-2-yl)-[1,2,4]triazolo[1,5-c]pyrimidin-5-amine]: 0.0215 µM.
